# Experimental data from article PMC12858467, “In vitro toxicokinetics and metabolic profiling of methoxycathinones and methylthiocathinones using human liver systems and hyphenated mass spectrometry” (Archives of Toxicology, 2025).
# Like-named read-outs stand apart in the source and are kept apart here.
# What was measured:
# [1] = test system: pooled human liver S9 fraction (pHLS9) and HepaRG cells; test: In vitro metabolism by pHLS9 and HepaRG cells (LC-HRMS/MS metabolite identification); assay type: in vitro ADME; settings: 25 µM substrate
# [2] = test system: plasma proteins (pooled human blood plasma); test: In vitro plasma protein binding (ultrafiltration, Centrifree); assay type: in vitro ADME; settings: for PPB, %: 30 min, 37 °C, ultrafiltration
# Experimental: (§1) PPB was investigated according to a previous study with minor modifications (Kroesen et al. [2025]). Fresh and pooled human blood plasma (450 µL) was spiked with 50 µL of a 5 µM methanolic solution of 4MeO-NE-BP, 4MeO-αP-BP, 4MeO-αP-VP, 4MeS-NE-BP, 4MeS-αP-BP, or 4MeS-αMor-PrP. The mixture was incubated for 30 min at 37 °C and with gentle shaking at 200 rpm. […] The Centrifree devices were centrifuged for 35 min at 1600 × g to obtain 100 µL of the ultrafiltrate (UF). […] Experiments were performed in quadruplicate. Fraction unbound (fu) and PPB were determined by comparing the area ratios of the compound and trimipramine-d3 as an internal standard in the UF and GA using the following equations:1 fu=peak area ratiocompoundUF/ISUF/peak area ratiocompoundGA/ISGA 2 PPB[\%]=1-fu∗100.
# [3] = as above; assay type: in vitro ADME; settings: human, pooled human blood plasma, 30 min, 37 °C, ultrafiltration
# Experimental: as §1
# [4] = test system: dopamine and serotonin transporters; set-up: method as in Wojcieszak et al. [2021]; settings: ref Wojcieszak et al. [2021]; cited from earlier work
# [5] = test system: HepaRG cells; test: Incubations using HepaRG cells; settings: 25 µM parent, 24 h
# Experimental: Cell incubations were performed in a monolayer assay (Kroesen et al. [2025]) and in accordance with the manufacturer’s instructions.
# All incubations were performed in triplicate, with each well containing 0.5% (v/v) DMSO. Following incubation, 50 µL of the medium supernatant was transferred to a new reaction tube and precipitated with 30 µL of acetonitrile cooled to −20 °C, containing 2.5 µM trimipramine-d3 as an internal standard. […] The mixture was vortexed and centrifuged for 2 min at 18,407 × g. A volume of 70 µL of the supernatant was transferred into an autosampler vial and 5 µL was injected onto the LC–HRMS/MS system.
# HepaRG cells were thawed and resuspended in 13.5 mL (~ 740,000 cells/mL) thaw
# and seed medium at 37 °C. Thaw and seed medium consisted of Williams E medium,
# 100 U/mL penicillin, 100 µg/mL streptomycin, GlutaMAX, and HPRG670 supplement.
# Cells were handled under sterile conditions using a laminar flow bench class II (Thermo
# Scientific, TF, Schwerte, Germany). Aliquots of 100 µL cell suspension were seeded
# on collagen-coated 96-well plates (~ 74,000 cells/well). Evaporation was minimized by
# filling the outer wells with 100 µL thaw and seed medium. Cells were preincubated for
# 4 h in an incubator (Binder, Tuttlingen, Germany) at 37 °C, 95 % air humidity, and 5 %
# CO2. After preincubation, 50 µL of the thaw and seed medium was replaced with 50 µL
# solution of each cathinone (25 µM) in thaw and seed medium, followed by an
# incubation for 24 h at 37 °C, 95 % air humidity, and 5 % CO2 atmosphere.
# A Thermo Fisher ( TF, Dreieich, Germany) Dionex UltiMate 3000 RS pump consisting
# of a degasser, a quaternary pump, and an autosampler, coupled to a TF Q Exactive
# Plus system equipped with a heated electrospray ionization (HESI)-II source were
# used. A mass calibration was done according to the manufacturer's recommendations
# using external mass calibration prior to analysis. Gradient elution was performed on a
# TF Accucore PhenylHexyl column (100 mm x 2.1 mm, 2.6 μm) with a 2 mM aqueous
# ammonium formate solution containing 0.1 % (v/v) formic acid (pH 3, eluent A) and 2
# mM ammonium formate solution in acetonitrile/methanol (50:50, v/v) containing 0.1 %
# (v/v) formic acid, and 1 % (v/v) water (eluent B). The gradient was stepped as follows:
# hold 99 % A. Initial flow rate from 0–9.5 min was 500 μL/min and final flow rate was
# 800 μL/min from 9.5–11.5 min. Mass spectrometry was performed using full scan data
# and a subsequent data-dependent acquisition (DDA) with priority to mass-to-charge
# ratios (m/z) of parent compounds and their expected metabolites. The inclusion list
# contained m/z values of likely formed metabolites such as O- or S-desmethyl, hydroxy,
# and oxo reduction metabolites (phase I) as well as sulfates, glucuronides (phase II),
# and combinations thereof.
# TF Xcalibur Qual Browser software […]
# [6] = read-out: fu (unbound fraction)
SMILES,metabolic reactions (metabolite IDs) identified [1],number of metabolites tentatively identified [1],"Plasma protein binding, class in words [2]","PPB, % [2]","fraction unbound at 30 min, 0.5 µM ([3]; read-out: PPB, % (converted))","fraction unbound at 30 min, 0.5 µM [3, 6]",Phase II metabolism [1],"monoamine uptake inhibition, relative potency at transporters [4]",metabolite detection in HepaRG incubations [5]
"CCC(C(=O)c1ccc(OC)cc1)N1CCCC1 (stereo not drawn) [Compound 4MeO-αP-BP, 4’-methoxy-α-pyrrolidinobutyrophenone]","hydroxylation (MO2.1), O-demethylation (MO2.2), N-oxidation (MO2.3), lactam formation (MO2.4), and hydroxylation + N-oxidation (MO2.5)",5,low,46%,> 0.5,0.54,,,
"CCCC(C(=O)c1ccc(OC)cc1)N1CCCC1 (stereo not drawn) [Compound 4MeO-αP-VP, 4’-methoxy-α-pyrrolidinovalerophenone]","hydroxylation (MO3.1, MO3.3), O-demethylation (MO3.2), N-oxidation (MO3.4), lactam formation (MO3.5), O-demethylation + aromatic hydroxylation (MO3.6), hydroxylation + N-oxidation (MO3.7), and O-demethylation + dihydroxylation at the pyrrolidine ring (MO3.8)",10,moderate,61%,,0.39,O-sulfation (MO3.9) and O-glucuronidation (MO3.10) after O-demethylation,greater potency in dopamine than serotonin transporters,
CCCC(C(=O)c1ccc(OS(=O)(=O)O)cc1)N1CCCC1 (centres unmarked) [MO3.9],,,,,,,,,observed in HepaRG incubations
